Values of other authors in patent publication US20220213156A1, “Peptides for use in therapy or prophylaxis of Herpesviridae-infections” (priority 2019, published 2022).
“And” between values parts separate entries of the source, which are not always exact repeats. Equal entries are not always repeated.

System: multidrug resistant CMV isolate (H815-2006)
Conditions: isolate H815-2006 with UL97 L595S and UL54 V715M; cited from earlier work

Structure (SMILES): Nc1nc(O)c2ncn(COC(CO)CO)c2n1 [GCV, Ganciclovir]
- IC50: > 30 µM and 31.5 µM
